HELM strings list units from the 5' end as sugar, base in round brackets, then linkage (d deoxyribose, r ribose, m 2'-O-methyl, p phosphodiester). Strings are as the collection lists them; they lack the last nucleoside at the 3' end of the tested compound. [moe] = 2'-O-(2-methoxyethyl) (MOE); [sp] = phosphorothioate linkage; [m5C] = 5-methylcytosine

The data set deals with UBE3A-ATS. Kind of data set: mouse, dose not given. The following applies: ASO.
As for “RNA1{[moe](T)[sp].[moe](G)p.[moe](G)p.[moe](T)p.d([m5C])[sp].d(A)[sp].d(T)[sp].d([m5C])[sp].d(T)[sp].d([m5C])[sp].d(G)[sp].d(G)[sp].d(G)[sp].d(T)[sp].[moe](A)p.[moe](T)p.[moe](A)p.[moe](T)[sp].[moe](A)}$$$$ (last 3' nucleoside missing)”, the 3 h FOB score amounted to 4 score 0-7. As for “RNA1{[moe](A)[sp].[moe](A)p.[moe]([m5C])p.[moe](T)p.[moe](G)p.d([m5C])[sp].d(T)[sp].d(T)[sp].d([m5C])[sp].d(A)[sp].d([m5C])[sp].d([m5C])[sp].d(A)[sp].d(T)[sp].d(T)[sp].[moe](T)p.[moe](T)p.[moe](G)[sp].[moe](A)}$$$$ (last 3' nucleoside missing)”, the figure is 0 score 0-7; as for “RNA1{[moe](T)[sp].[moe]([m5C])p.[moe](A)p.[moe]([m5C])p.[moe](T)p.d(G)[sp].d(A)[sp].d(G)[sp].d(T)[sp].d(T)[sp].d(T)[sp].d(T)[sp].d(T)[sp].d(G)[sp].d(T)[sp].[moe](A)p.[moe](G)p.[moe](T)[sp].[moe](T)}$$$$ (last 3' nucleoside missing)”, 3.7 score 0-7. With “RNA1{[moe](A)[sp].[moe](T)p.[moe]([m5C])p.[moe](A)p.[moe](G)p.d(G)[sp].d(G)[sp].d([m5C])[sp].d(A)[sp].d([m5C])[sp].d(A)[sp].d(T)[sp].d(G)[sp].d(G)[sp].d(A)[sp].[moe](G)p.[moe](T)p.[moe](T)[sp].[moe](G)}$$$$ (last 3' nucleoside missing)”, the 3 h FOB score came out at 6.8 score 0-7. As for “RNA1{[moe](T)[sp].[moe]([m5C])p.[moe](A)p.[moe](G)p.[moe](T)p.[moe](T)p.d(A)[sp].d(G)[sp].d(G)[sp].d(T)[sp].d(T)[sp].d(A)[sp].d(G)[sp].d(T)[sp].d(G)[sp].d([m5C])[sp].[moe](A)p.[moe]([m5C])[sp].[moe](A)}$$$$ (last 3' nucleoside missing)”, the figure is 4.8 score 0-7; as for “RNA1{[moe](T)[sp].[moe](G)p.[moe](T)p.[moe](A)p.[moe]([m5C])p.d(A)[sp].d(A)[sp].d(A)[sp].d([m5C])[sp].d(G)[sp].d(G)[sp].d(G)[sp].d([m5C])[sp].d(T)[sp].d(A)[sp].[moe](T)p.[moe](G)p.[moe](T)[sp].[moe](G)}$$$$ (last 3' nucleoside missing)”, 7 score 0-7; as for “RNA1{[moe](G)[sp].[moe](T)p.[moe](G)p.[moe]([m5C])p.d(A)[sp].d(T)[sp].d(A)[sp].d([m5C])[sp].d([m5C])[sp].d([m5C])[sp].d(A)[sp].d(G)[sp].d(G)[sp].d(G)[sp].[moe](T)p.[moe](A)p.[moe](G)p.[moe](G)[sp].[moe](A)}$$$$ (last 3' nucleoside missing)”, 2 score 0-7. The same measure for “RNA1{[moe]([m5C])[sp].[moe](G)p.[moe](T)p.[moe](G)[sp].d(A)[sp].d(G)[sp].d([m5C])[sp].d(T)[sp].d(A)[sp].d(T)[sp].d([m5C])[sp].d(T)[sp].[moe](G)p.[moe](T)p.[moe](A)p.[moe]([m5C])[sp].[moe](A)}$$$$ (last 3' nucleoside missing)”: 1 score 0-7; for “RNA1{[moe](T)[sp].[moe](A)p.[moe](T)p.[moe](A)p.[moe](G)p.d(G)[sp].d(G)[sp].d(T)[sp].d(G)[sp].d(G)[sp].d(T)[sp].d(T)[sp].d(G)[sp].d(G)[sp].d(T)[sp].[moe](T)p.[moe]([m5C])p.[moe](A)[sp].[moe](A)}$$$$ (last 3' nucleoside missing)”: 6 score 0-7; for “RNA1{[moe](T)[sp].[moe](T)p.[moe](A)p.[moe](T)p.[moe](T)p.d(G)[sp].d(G)[sp].d(T)[sp].d([m5C])[sp].d(A)[sp].d(T)[sp].d([m5C])[sp].d(T)[sp].d([m5C])[sp].d(G)[sp].[moe](G)p.[moe](G)p.[moe](T)[sp].[moe](A)}$$$$ (last 3' nucleoside missing)”: 4 score 0-7. With “RNA1{[moe](G)[sp].[moe](G)p.[moe](A)p.[moe](G)p.[moe](A)p.d([m5C])[sp].d(A)[sp].d(A)[sp].d(T)[sp].d([m5C])[sp].d(T)[sp].d(A)[sp].d(G)[sp].d(T)[sp].d(T)[sp].[moe](A)p.[moe](G)p.[moe](A)[sp].[moe]([m5C])}$$$$ (last 3' nucleoside missing)”, the 3 h FOB score amounted to 4 score 0-7. As for “RNA1{[moe](A)[sp].[moe](G)p.[moe]([m5C])p.[moe]([m5C])p.[moe](A)p.[moe](G)p.d(G)[sp].d(T)[sp].d(G)[sp].d(T)[sp].d([m5C])[sp].d(T)[sp].d(T)[sp].d(A)[sp].d(T)[sp].d(A)[sp].[moe](T)p.[moe]([m5C])[sp].[moe](T)}$$$$ (last 3' nucleoside missing)”, the figure is 0 score 0-7; as for “RNA1{[moe](A)[sp].[moe](A)p.[moe]([m5C])p.[moe](A)p.[moe](A)p.d([m5C])[sp].d(G)[sp].d(G)[sp].d(T)[sp].d(T)[sp].d(G)[sp].d([m5C])[sp].d(A)[sp].d(G)[sp].d(G)[sp].[moe](G)p.[moe](A)p.[moe]([m5C])[sp].[moe](A)}$$$$ (last 3' nucleoside missing)”, 6.8 score 0-7. The same measure for “RNA1{[moe]([m5C])[sp].[moe](A)p.[moe](T)p.[moe](T)p.[moe](A)p.d(T)[sp].d(T)[sp].d([m5C])[sp].d(A)[sp].d(A)[sp].d(T)[sp].d(T)[sp].d(A)[sp].d(A)[sp].d(G)[sp].[moe](G)p.[moe](G)p.[moe](T)[sp].[moe](G)}$$$$ (last 3' nucleoside missing)”: 4 score 0-7; for “RNA1{[moe]([m5C])[sp].[moe](A)p.[moe]([m5C])p.[moe](A)p.[moe](T)p.d(T)[sp].d(A)[sp].d([m5C])[sp].d([m5C])[sp].d([m5C])[sp].d(A)[sp].d(T)[sp].d([m5C])[sp].d([m5C])[sp].d(G)[sp].[moe](T)p.[moe](T)p.[moe]([m5C])[sp].[moe](T)}$$$$ (last 3' nucleoside missing)”: 0 score 0-7. As for “RNA1{[moe]([m5C])[sp].[moe](A)p.[moe](G)p.[moe](T)p.[moe](T)p.d(A)[sp].d(G)[sp].d(G)[sp].d(T)[sp].d(T)[sp].d(A)[sp].d(G)[sp].d(T)[sp].d(G)[sp].d([m5C])[sp].[moe](A)p.[moe]([m5C])p.[moe](A)[sp].[moe](G)}$$$$ (last 3' nucleoside missing)”, the 3 h FOB score was found to be 6 score 0-7. In the case of “RNA1{[moe]([m5C])[sp].[moe](T)p.[moe]([m5C])p.[moe](A)p.[moe](G)p.[moe](T)p.d(T)[sp].d(A)[sp].d(G)[sp].d(G)[sp].d(T)[sp].d(T)[sp].d(A)[sp].d(G)[sp].d(T)[sp].d(G)[sp].[moe]([m5C])p.[moe](A)[sp].[moe]([m5C])}$$$$ (last 3' nucleoside missing)”, the 3 h FOB score amounted to 4 score 0-7. “RNA1{[moe](G)[sp].[moe](G)p.[moe](G)p.[moe]([m5C])p.[moe](A)p.d(G)[sp].d([m5C])[sp].d(A)[sp].d(A)[sp].d([m5C])[sp].d(A)[sp].d(G)[sp].d([m5C])[sp].d(T)[sp].d([m5C])[sp].[moe](T)p.[moe](T)p.[moe](G)[sp].[moe](A)}$$$$ (last 3' nucleoside missing)” showed a 3 h FOB score of 7 score 0-7. Take “RNA1{[moe](G)[sp].[moe](T)p.[moe](G)p.[moe]([m5C])p.[moe](A)p.[moe](T)[sp].d(A)[sp].d([m5C])[sp].d([m5C])[sp].d([m5C])[sp].d(A)[sp].d(G)[sp].d(G)[sp].d(G)[sp].[moe](T)p.[moe](A)[sp].[moe](G)}$$$$ (last 3' nucleoside missing)”: the 3 h FOB score came to 4 score 0-7. As for “RNA1{[moe](T)[sp].[moe](G)p.[moe]([m5C])p.[moe](T)p.d([m5C])[sp].d(A)[sp].d(G)[sp].d(T)[sp].d(T)[sp].d(A)[sp].d(G)[sp].d(G)[sp].d(T)[sp].d(T)[sp].[moe](A)p.[moe](G)p.[moe](T)p.[moe](G)[sp].[moe]([m5C])}$$$$ (last 3' nucleoside missing)”, the figure is 4 score 0-7. As for “RNA1{[moe](G)[sp].[moe](T)p.[moe](T)p.[moe](T)p.[moe](A)p.d(G)[sp].d(G)[sp].d(T)[sp].d([m5C])[sp].d(A)[sp].d(A)[sp].d([m5C])[sp].d([m5C])[sp].d(A)[sp].d(A)[sp].[moe](T)p.[moe](T)p.[moe](T)[sp].[moe](G)}$$$$ (last 3' nucleoside missing)”, the figure is 1 score 0-7. The same measure for “RNA1{[moe](G)[sp].[moe](G)p.[moe]([m5C])p.[moe](A)p.[moe](G)p.d([m5C])[sp].d(T)[sp].d([m5C])[sp].d([m5C])[sp].d(T)[sp].d(G)[sp].d(A)[sp].d([m5C])[sp].d(A)[sp].d(A)[sp].[moe](A)p.[moe](T)p.[moe](T)[sp].[moe](A)}$$$$ (last 3' nucleoside missing)”: 4 score 0-7.

Take “RNA1{[moe](G)[sp].[moe](G)p.[moe](A)p.[moe]([m5C])p.[moe](A)p.d([m5C])[sp].d(T)[sp].d([m5C])[sp].d(T)[sp].d([m5C])[sp].d(G)[sp].d([m5C])[sp].d(T)[sp].d(G)[sp].d(A)[sp].[moe](G)p.[moe](G)p.[moe](A)[sp].[moe]([m5C])}$$$$ (last 3' nucleoside missing)”: the 3 h FOB score was determined as 4.5 score 0-7. On to “RNA1{[moe](G)[sp].[moe](T)p.[moe]([m5C])p.[moe](A)p.[moe](T)p.d([m5C])[sp].d(T)[sp].d([m5C])[sp].d(G)[sp].d(G)[sp].d(G)[sp].d(T)[sp].d(A)[sp].d(T)[sp].d(A)[sp].[moe](T)p.[moe](A)p.[moe](A)[sp].[moe](A)}$$$$ (last 3' nucleoside missing)”, for which the 3 h FOB score is 5.5 score 0-7. The same measure for “RNA1{[moe](A)[sp].[moe](T)p.[moe](G)p.[moe](T)p.[moe](G)p.[moe]([m5C])p.d(A)[sp].d(T)[sp].d(A)[sp].d([m5C])[sp].d([m5C])[sp].d([m5C])[sp].d(A)[sp].d(G)[sp].d(G)[sp].d(G)[sp].[moe](T)p.[moe](A)[sp].[moe](G)}$$$$ (last 3' nucleoside missing)”: 3.5 score 0-7. The same measure for “RNA1{[moe](G)[sp].[moe](A)p.[moe](T)p.[moe](T)p.[moe]([m5C])p.d(A)[sp].d(A)[sp].d(T)[sp].d(A)[sp].d(G)[sp].d(T)[sp].d(G)[sp].d(T)[sp].d(A)[sp].d(G)[sp].[moe](G)p.[moe](T)p.[moe](G)[sp].[moe](A)}$$$$ (last 3' nucleoside missing)”: 3.3 score 0-7.

(Values after the OligoGym collection.)
